# Measured values published in ChEMBL document CHEMBL1201862, “PubChem BioAssay data set” (2004).
# Where a name gives a salt, the structure may show the parent alone. Calls of active or inactive are those of the source.
# Legend:
# [1] = molecular target: T1, Carboxy-terminal domain RNA polymerase II polypeptide A small phosphatase 1 (Homo sapiens, UniProt Q9GZU7); experiment: CTDSP1 inhibitors, concentration-response, biochemical, absorbance readout, ultra-high-throughput screen actives (AID 540297); type: functional
# T1 sequence (Q9GZU7 whole entry): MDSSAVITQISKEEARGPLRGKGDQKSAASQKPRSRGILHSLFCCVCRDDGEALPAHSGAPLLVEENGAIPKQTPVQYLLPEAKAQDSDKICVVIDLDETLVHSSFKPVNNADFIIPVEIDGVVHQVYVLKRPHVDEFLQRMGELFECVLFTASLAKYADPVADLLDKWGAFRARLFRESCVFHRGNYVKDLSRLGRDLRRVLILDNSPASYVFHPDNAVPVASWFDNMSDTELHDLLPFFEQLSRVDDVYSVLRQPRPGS
# [2] = Trypanosoma cruzi growth suppression in host cells – NIH3T3 host cells, beta-gal luminescence, confirmation (AID 2044); type: functional, cell-based;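 further: intracellular parasites grown in NIH/3T3 mouse fibroblasts as host cells; luminescent beta-galactosidase reporter signal from transgenic T. cruzi replicating inside host cells; inhibitors lower the luminescence signal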
# [3] = microbe, parasite or virus in culture; type: functional; details: Mycobacterium tuberculosis
# [4] = NIH3T3 cell viability loss – ATP luminescence, mouse fibroblasts, counter-screen, dose response (AID 2010); type: functional, cell-based;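 further: cells exposed to compound for about 90 hours before reading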
# [5] = molecular target: T2, High affinity choline transporter 1 (Homo sapiens, UniProt Q9GZV3); experiment: human choline transporter blockers, potency – cell-based, 5-point CRC, membrane potential dye, dose response (AID 504840); type: functional
# T2 sequence (Q9GZV3 whole entry): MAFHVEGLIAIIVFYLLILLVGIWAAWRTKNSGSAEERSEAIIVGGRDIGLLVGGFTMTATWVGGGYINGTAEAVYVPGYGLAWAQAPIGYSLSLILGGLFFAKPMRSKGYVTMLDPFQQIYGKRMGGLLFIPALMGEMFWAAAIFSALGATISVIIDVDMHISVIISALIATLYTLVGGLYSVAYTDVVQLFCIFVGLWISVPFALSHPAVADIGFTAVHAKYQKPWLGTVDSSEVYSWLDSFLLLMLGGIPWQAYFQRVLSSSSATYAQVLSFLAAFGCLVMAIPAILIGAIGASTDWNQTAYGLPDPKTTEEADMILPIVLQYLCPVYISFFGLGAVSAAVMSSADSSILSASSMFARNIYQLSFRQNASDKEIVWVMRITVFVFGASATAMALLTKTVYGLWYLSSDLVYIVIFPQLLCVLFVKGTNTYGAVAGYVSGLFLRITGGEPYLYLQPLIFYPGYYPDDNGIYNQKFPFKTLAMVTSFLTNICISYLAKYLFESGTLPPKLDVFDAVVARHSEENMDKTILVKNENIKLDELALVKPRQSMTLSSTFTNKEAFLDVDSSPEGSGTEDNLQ
# [6] = molecular target: SUMO-activating enzyme (Homo sapiens, UniProt Q9UBT2); experiment: blockers of UBC9-mediated SUMO conjugation – biochemical, AlphaScreen, SUMOylation inhibitor project, confirmation (AID 2018); type: functional
# Sequence of SUMO-activating enzyme (Q9UBE0 whole entry): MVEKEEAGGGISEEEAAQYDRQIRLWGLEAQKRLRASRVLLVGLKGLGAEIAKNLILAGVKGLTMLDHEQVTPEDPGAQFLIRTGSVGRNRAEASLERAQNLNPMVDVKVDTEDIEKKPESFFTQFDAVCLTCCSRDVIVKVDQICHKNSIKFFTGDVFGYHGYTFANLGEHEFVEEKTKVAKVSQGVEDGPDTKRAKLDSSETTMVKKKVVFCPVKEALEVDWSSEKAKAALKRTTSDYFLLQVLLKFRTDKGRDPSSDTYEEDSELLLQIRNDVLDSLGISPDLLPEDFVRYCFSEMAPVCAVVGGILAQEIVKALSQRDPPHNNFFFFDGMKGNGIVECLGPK
# Sequence of SUMO-activating enzyme (Q9UBT2 whole entry): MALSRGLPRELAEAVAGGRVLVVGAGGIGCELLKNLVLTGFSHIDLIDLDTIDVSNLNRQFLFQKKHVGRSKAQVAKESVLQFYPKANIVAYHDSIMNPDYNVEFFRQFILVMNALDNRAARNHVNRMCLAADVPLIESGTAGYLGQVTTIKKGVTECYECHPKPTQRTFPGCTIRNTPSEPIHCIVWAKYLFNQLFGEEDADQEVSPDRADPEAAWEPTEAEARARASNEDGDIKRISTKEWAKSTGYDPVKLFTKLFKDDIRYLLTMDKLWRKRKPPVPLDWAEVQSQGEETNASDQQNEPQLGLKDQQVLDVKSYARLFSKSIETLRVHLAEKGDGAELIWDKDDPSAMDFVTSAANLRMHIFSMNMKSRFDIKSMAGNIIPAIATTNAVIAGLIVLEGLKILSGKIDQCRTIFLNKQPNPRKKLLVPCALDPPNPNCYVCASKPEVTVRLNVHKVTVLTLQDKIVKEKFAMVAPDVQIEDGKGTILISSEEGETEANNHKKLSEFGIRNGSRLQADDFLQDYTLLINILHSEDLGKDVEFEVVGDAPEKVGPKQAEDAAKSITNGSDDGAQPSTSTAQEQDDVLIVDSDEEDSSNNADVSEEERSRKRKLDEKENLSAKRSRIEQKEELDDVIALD
# [7] = molecular target: Cytochrome P450 2C9 (Homo sapiens, UniProt P11712)
# Sequence of Cytochrome P450 2C9 (P11712 whole entry): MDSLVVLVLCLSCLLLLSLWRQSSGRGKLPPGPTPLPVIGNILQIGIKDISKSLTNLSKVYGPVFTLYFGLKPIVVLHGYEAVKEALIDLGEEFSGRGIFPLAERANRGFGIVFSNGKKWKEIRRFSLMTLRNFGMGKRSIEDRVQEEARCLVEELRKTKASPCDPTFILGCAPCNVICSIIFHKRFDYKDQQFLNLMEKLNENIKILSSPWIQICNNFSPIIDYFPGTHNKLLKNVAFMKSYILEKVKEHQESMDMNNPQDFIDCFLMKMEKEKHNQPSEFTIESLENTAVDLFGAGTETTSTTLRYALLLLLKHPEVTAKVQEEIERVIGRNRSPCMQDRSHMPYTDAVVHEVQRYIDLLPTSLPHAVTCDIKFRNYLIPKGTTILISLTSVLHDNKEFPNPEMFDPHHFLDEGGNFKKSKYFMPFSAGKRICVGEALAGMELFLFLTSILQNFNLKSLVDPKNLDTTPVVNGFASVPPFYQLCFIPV
# [8] = molecular target: T3, Estrogen receptor (Homo sapiens, UniProt P03372);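 further: potency for inhibiting coactivator peptide recruitment to the receptor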
# T3 sequence (P03372 whole entry): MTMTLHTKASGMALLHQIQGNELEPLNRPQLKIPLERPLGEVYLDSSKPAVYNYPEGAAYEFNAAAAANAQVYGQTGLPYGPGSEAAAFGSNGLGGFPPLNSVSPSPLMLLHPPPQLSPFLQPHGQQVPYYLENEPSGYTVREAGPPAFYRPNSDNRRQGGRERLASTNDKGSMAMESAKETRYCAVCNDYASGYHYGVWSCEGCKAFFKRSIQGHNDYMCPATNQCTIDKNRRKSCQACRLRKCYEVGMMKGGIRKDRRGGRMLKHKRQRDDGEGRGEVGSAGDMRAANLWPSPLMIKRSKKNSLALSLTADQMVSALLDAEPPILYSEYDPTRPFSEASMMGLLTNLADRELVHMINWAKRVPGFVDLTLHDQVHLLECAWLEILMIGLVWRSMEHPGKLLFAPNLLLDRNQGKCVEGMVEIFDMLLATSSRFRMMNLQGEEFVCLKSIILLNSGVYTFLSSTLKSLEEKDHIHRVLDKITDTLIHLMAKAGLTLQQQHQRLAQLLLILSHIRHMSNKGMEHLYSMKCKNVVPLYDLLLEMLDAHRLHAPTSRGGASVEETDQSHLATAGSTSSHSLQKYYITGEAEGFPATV
# [9] = molecular target: T4, E3 ubiquitin-protein ligase XIAP (Homo sapiens, UniProt P98170); experiment: Counter Screen using XIAP-Bir3 for Chemical Antagonists of Bir1/2 domains of IAP-family anti-apoptotic proteins. [Related pubchem assays (depositor defined):AID1018, AID1449, AID1514, AID1638, AID1749, AID1750, AID488957, AID488963]
# T4 sequence (P98170 whole entry): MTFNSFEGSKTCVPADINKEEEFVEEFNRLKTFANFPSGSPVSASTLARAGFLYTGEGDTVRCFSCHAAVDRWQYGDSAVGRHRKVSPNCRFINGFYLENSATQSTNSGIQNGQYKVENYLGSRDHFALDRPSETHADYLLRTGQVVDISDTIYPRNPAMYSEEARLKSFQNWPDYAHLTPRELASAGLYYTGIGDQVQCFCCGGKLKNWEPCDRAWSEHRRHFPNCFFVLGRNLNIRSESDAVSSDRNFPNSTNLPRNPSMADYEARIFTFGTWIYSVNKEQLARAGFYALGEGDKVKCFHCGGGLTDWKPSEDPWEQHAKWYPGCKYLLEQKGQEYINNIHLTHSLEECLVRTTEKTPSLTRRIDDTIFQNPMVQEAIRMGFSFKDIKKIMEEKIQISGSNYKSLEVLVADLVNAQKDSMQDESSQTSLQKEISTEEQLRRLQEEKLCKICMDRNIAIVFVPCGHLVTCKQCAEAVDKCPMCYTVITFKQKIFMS
# [10] = molecular target: T4, E3 ubiquitin-protein ligase XIAP; experiment: small molecules displacing peptide from XIAP – biochemical, IAP family, fluorescence polarization (AID 1018); type: functional
# [11] = system: H9c2; experiment: cells; type: functional, cell-based; details: Rattus norvegicus, H9c2, Myocardium;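 further: confirmatory concentration-response retest of ultra-high-throughput screening hits for modulation of myocardial damage; cell death induced by hydrogen peroxide oxidative stress; compound pretreatment for 60 min then peroxide exposure for 2 h; potency is for protecting the cells against peroxide damage rather than for killing them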
# [12] = luciferase reporter signal suppression in cells – H4 neuroglioma cells, luminescence, dose response (AID 1990); type: functional, cell-based
# [13] = luciferase reporter signal reduction – luminescence, H4-C neuroglioblastoma cells, dose response (AID 2458); type: functional, cell-based;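 further: H4 neuroglioblastoma cells stably carrying a luciferase reporter gene fusion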
# [14] = system: BJ; experiment: BJ-TERT fibroblast viability loss – cell-based, RAS-independent, luminescence, dose response (AID 1933); type: functional; details: Homo sapiens
# [15] = cells; type: functional, cell-based
# [16] = Luminescence Cell-Based Dose Response HTS to Identify Inhibitors of 5'UTR Stem-Loop Driven Prion Protein mRNA Translation in H4 Neuroglioblastoma Cells. [Related pubchem assays: 1827 (Project Summary), 1813 (Primary HTS)]; type: functional
# [17] = alpha-synuclein stem-loop luciferase translation blockers – H4 neuroglioma cells, luminescence, confirmation (AID 1988); type: functional, cell-based
# [18] = system: BJ; experiment: cells; type: functional, cell-based; details: Homo sapiens
# [19] = system: BJ; experiment: BJ-TERT-LT-ST fibroblast viability loss – cell-based, RAS-independent, luminescence, dose response (AID 1935); type: functional; details: Homo sapiens;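 further: BJ fibroblasts immortalized with TERT plus LT and ST oncogenes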
# [20] = DRD fibroblast viability loss – cell-based, non-viral oncogenic, luminescence, dose response (AID 1934); type: functional; details: Homo sapiens
# [21] = alpha-synuclein stem-loop translation blockers – luminescence, H4 neuroglioblastoma cells, dose confirmation, confirmation (AID 2454); type: functional, cell-based;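 further: H4 neuroglioblastoma cells carrying an alpha-synuclein 5'UTR luciferase reporter; potency for inhibition of the luciferase signal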
# [22] = HEK-293T viability loss after treatment – luminescence, T-cell screen hits, cytotoxicity control for TCR NF-kB inhibitor project, dose response (AID 489026); type: functional, cell-based;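 further: cells exposed to compound about 14 hours before the viability readout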
# [23] = molecular target: Glyceraldehyde-3-phosphate dehydrogenase (Homo sapiens, UniProt P04406)
# Sequence of Glyceraldehyde-3-phosphate dehydrogenase (P04406 whole entry): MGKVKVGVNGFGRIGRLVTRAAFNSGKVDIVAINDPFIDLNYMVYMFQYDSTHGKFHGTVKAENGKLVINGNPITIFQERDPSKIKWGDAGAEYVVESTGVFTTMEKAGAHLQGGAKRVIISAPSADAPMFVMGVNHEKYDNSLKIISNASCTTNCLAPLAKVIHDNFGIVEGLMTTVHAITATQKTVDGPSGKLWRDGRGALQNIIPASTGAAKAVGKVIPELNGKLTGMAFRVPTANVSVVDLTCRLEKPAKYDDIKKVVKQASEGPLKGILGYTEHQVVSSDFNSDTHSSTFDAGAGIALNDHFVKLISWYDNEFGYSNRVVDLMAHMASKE
# [24] = molecular target: Cytochrome P450 3A4 (Homo sapiens, UniProt P08684); details: Potency;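 further: confirmatory qHTS run detecting inhibitors and substrates of CYP3A4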
# Sequence of Cytochrome P450 3A4 (P08684 whole entry): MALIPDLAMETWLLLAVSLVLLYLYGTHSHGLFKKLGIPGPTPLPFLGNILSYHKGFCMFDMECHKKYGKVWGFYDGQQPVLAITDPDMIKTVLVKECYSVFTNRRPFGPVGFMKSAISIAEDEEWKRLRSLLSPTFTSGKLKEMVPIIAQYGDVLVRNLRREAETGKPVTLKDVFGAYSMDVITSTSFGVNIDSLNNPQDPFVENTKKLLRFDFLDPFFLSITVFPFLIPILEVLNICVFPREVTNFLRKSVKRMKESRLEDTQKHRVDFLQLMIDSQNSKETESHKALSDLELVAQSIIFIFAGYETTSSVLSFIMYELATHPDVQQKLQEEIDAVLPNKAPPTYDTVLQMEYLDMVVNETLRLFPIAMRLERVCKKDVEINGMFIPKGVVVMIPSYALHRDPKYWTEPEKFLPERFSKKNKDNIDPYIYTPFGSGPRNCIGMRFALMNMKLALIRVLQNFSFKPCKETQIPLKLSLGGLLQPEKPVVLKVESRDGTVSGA
# [25] = system: HEK293; experiment: inhibition of NOD1-driven NF-kB reporter – cell-based, luminescence, uHTS, primary screen (AID 1578); type: functional; details: Homo sapiens
# [26] = system: HEK293; experiment: cells; type: functional, cell-based; details: Homo sapiens
# [27] = system: HEK293; experiment: cells; type: functional, cell-based; details: Homo sapiens; remark: listed apart in the source
# [28] = system: HEK293; experiment: NOD2 signaling inhibitors in MDP-stimulated cells, cell-based, uHTS, luminescence (AID 2001); type: functional; details: Homo sapiens
# [29] = system: INS1; experiment: INS-1E survival protection against cytokine death – cell-based, luminescence, retest, dose response (AID 449756); type: functional; details: Rattus norvegicus;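 further: cell death triggered by IL-1 beta plus TNF-alpha plus IFN-gamma mixture; protective hits raise ATP signal compared with cytokine alone wells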
# [30] = molecular target: Nonstructural protein 1 (Influenza A virus, UniProt Q194T2); type: functional, Influenza A virus (A/California/07/2009(H1N1))
# Sequence of Nonstructural protein 1 (Q194T2 whole entry): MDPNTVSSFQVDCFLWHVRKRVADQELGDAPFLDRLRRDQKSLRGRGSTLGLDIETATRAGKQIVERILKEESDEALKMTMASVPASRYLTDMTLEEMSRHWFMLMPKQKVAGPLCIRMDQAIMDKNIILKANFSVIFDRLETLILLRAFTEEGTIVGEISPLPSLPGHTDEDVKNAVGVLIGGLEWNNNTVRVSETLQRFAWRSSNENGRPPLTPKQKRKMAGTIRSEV
# [31] = system: HEK293; experiment: EBV LMP1 TES2 canonical NF-kB signalling blockers – cell-based, HEK293, luciferase, cherry-pick, dose response (AID 588343); type: functional; details: Homo sapiens
# [32] = molecular target: T5, Rac GTPase-activating protein 1 (Homo sapiens, UniProt Q9H0H5); experiment: blockers of MgcRacGAP-driven Rac1 GTP hydrolysis – biochemical, ADP Hunter fluorescence, primary and confirmatory, confirmation (AID 624330); type: functional
# T5 sequence (Q9H0H5 whole entry): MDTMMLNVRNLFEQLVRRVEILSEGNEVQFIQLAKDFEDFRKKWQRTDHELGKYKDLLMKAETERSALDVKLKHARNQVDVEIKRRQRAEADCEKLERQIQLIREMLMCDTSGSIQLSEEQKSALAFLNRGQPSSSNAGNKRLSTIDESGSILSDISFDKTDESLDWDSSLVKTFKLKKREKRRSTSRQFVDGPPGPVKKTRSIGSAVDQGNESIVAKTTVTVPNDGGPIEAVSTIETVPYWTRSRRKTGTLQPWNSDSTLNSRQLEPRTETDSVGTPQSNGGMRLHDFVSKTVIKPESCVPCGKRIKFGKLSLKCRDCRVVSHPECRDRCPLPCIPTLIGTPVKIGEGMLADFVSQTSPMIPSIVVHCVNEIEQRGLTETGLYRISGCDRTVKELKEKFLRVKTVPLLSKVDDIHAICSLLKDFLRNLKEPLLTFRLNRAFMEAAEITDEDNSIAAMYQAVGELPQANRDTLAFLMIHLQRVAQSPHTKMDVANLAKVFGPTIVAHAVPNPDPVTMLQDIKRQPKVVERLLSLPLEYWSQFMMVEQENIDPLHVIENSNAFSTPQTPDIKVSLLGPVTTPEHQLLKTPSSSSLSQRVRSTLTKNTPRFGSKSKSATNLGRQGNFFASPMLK
# [33] = blockers of HIV-1 envelope-mediated cell-cell fusion – cherry-pick, dose response (AID 652057); type: functional, cell-based
# [34] = viability loss in CEM21 cells – cell-based, CellTiter-Glo luminescence, cherry-picked, cytotoxicity control for viral fusion inhibitor project, dose response (AID 652042); type: functional;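 further: potency for signal decrease meaning cytotoxicity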
# [35] = HIV-1 AD8 envelope cell-cell fusion blockers – cherry-pick, dose response (AID 652062); type: functional, cell-based;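 further: luciferase signal from cell-cell fusion driven by HIV-1 clade B AD8 Env; potency is for inhibitors of fusion seen as a drop in luminescence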
# [36] = system: P388/ADR; experiment: cells; type: functional; details: Mus musculus
# [37] = system: SN12K1; experiment: cells; type: functional; details: Homo sapiens
# [38] = system: P388; experiment: cells; type: functional; details: Mus musculus
compound,measurement,setting,value
O=C(Cn1cnc2c(nnn2-c2ccccc2)c1=O)NCc1ccc(F)cc1,IC50,[1],6.76 µM (active)
c1ccc(CCN2CCN(c3ncnc4c3cnn4-c3ccccc3)CC2)cc1,EC50,[2],2.38 µM (active)
same,CC50,[3],> 40 µM (active)
same,EC50,[4],> 30 µM (not active)
same,IC50,[5],30.2 µM (active)
CC(=O)Nc1ccc(NC(=O)Cn2c(-c3ccc(F)cc3)cnc2SCC(=O)Nc2c(C)cccc2C)cc1,IC50,[6],61.6 µM (active)
same,AC50,[7],17.8 µM (inconclusive)
Cc1cc(-c2nn3c(-c4ccccc4)nnc3s2)c2ccccc2n1,IC50,[8],21.6 µM (active)
same,IC50,[9],> 100 µM (inactive)
same,IC50,[10],> 100 µM (not active)
same,IC50,[11],> 79 µM (inactive)
C=CCOC(=O)c1[nH]c2c(c1C)C(=O)CC(c1ccco1)C2 (stereo not drawn),EC50,[12],0.257 µM (active)
same,EC50,[13],0.598 µM (active)
same,EC50,[14],0.377 µM (inconclusive)
same,EC50,[15],1.29 µM (active)
same,EC50,[16],0.19 µM (active)
same,EC50,[17],< 0.1 µM (active)
same,EC50,[18],29.1 µM (inconclusive)
same,EC50,[19],0.346 µM (inconclusive)
same,EC50,[20],0.374 µM (active)
same,EC50,[21],0.822 µM (active)
same,IC50,[22],> 80 µM (inactive)
Cc1cccc(N2C(=O)C(Cl)=C(N3CCN(Cc4ccccc4)CC3)C2=O)c1,IC50,[23],> 50 µM (inconclusive)
COC(=O)[C@H]1C[C@H]2CC[C@H](O)C[C@H]2N1CC1CC1,AC50,[24],25.1 µM (inconclusive)
COc1ccc(NS(=O)(=O)c2ccc3oc(SC(C)C(N)=O)nc3c2)cc1 (stereo not drawn),EC50,[25],6.14 µM (active)
same,IC50,[26],> 20 µM (inactive)
same,IC50,[27],> 20 µM (inactive)
same,IC50,[28],20 µM (inactive)
O=C(Nc1ccccc1-c1nnn(CC(=O)N2CCCc3ccccc32)n1)c1ccc(Cl)cc1,IC50,[9],> 100 µM (inactive)
same,IC50,[10],> 100 µM (not active)
CC1CCCN(C(C(=O)Nc2ccc(C(C)C)cc2)c2ccc3c(c2)OCO3)C1 (stereo not drawn),IC50,[9],> 100 µM (inactive)
same,IC50,[10],> 100 µM (not active)
COc1ccc(S(=O)(=O)N2CCOC2CNC(=O)C(=O)NCCc2c[nH]c3ccccc23)cc1 (stereo not drawn),IC50,[9],> 100 µM (inactive)
same,IC50,[10],> 100 µM (not active)
COc1cc(/C=C(/C(=O)c2cccs2)c2nc3ccccc3[nH]2)ccc1O,EC50,[25],12.1 µM (active)
same,IC50,[26],2.96 µM (active)
same,IC50,[27],> 20 µM (inactive)
same,IC50,[28],4.02 µM (active)
same,AC50,[29],18 µM (active)
Oc1ccc(C=NNc2ccccn2)c(O)c1,IC50,[30],2.71 µM (active)
same,AC50,[31],10.4 µM (active)
same,IC50,[32],27 µM (active)
same,AC50,[33],8.53 µM (active)
same,AC50,[34],8.15 µM (active)
same,AC50,[35],5.5 µM (active)
Cc1cccc(CCNC(=O)C2CCCN(c3ncnc4c3nc3n4CCCCC3)C2)c1 (stereo not drawn),IC50,[5],11.8 µM (active)
CC(C)=CC(=O)OC1C2C(C)=CC(=O)C(O)C2(C)C2C3(O)OCC24C(CC(=O)OC14)C(C)C3O (stereo not drawn),GI50,[36],0.102 µM (active)
same,GI50,[37],0.02 µM (active)
same,GI50,[38],0.000946 µM (active)
O=C(N/N=C/c1ccc2c(c1)OCO2)c1cc(-c2ccco2)nc2ccccc12,IC50,[1],10.8 µM (active)
C/C(CC(=O)NC1CCCCC1)=N\NC(=O)Cc1ccc(-c2ccccc2)cc1,IC50,[1],7.87 µM (active)
O=C(c1cc(-c2cc(F)c(Cl)cc2Cl)n[nH]1)N(CCO)CCO,IC50,[23],> 10 µM (inconclusive)
CCCCN1CCCCC1C(=O)Nc1c(C)cccc1C (stereo not drawn) [BUPIVACAINE HYDROCHLORIDE],AC50,[24],31.6 µM (inconclusive)
